Experimental data from patent US8178506B2, “Oligomeric compounds and compositions for use in modulation of small non-coding RNAs” (Regulus Therapeutics Inc., priority 2003, dated 2012).
In the oligonucleotide strings, read from the 5' end, every base follows the letter of its sugar. An asterisk marks phosphorothioate; unmarked linkages are phosphodiester. Other units and linkages are bracketed, terminal groups are in braces. A string of capitals states the bases alone. e = 2'-O-(2-methoxyethyl) (MOE); [5mC] = 5-methylcytosine; d = 2'-deoxy (DNA)

Tests used:
mir-24-2 pri-miRNA = mir-24-2 pri-miRNA expression in HeLa cells; type: cell-based, human; conditions: 100 nM
Description: The expression levels of mir-24-2, let-7i , and let-7d were assessed in HeLa or T-24 cells treated with various uniform 2′-MOE oligomeric compounds targeting mature miRNAs. For example, using the transfection methods previously described, HeLa cells were treated with 100 nM of the oligomeric compound ISIS Number 327945 (SEQ ID NO: 363) targeting the mir-24-2 mature miRNA. Total RNA was isolated and expression levels of the mir-24-2 pri-miRNA were analyzed by real-time quantitative RT-PCR using a primer/probe set specific for the mir-24-2 pri-miRNA molecule [forward primer=ISIS 359358 (CCCTGGGCTCTGCCT; herein incorporated as SEQ ID NO.: 908), reverse primer-ISIS 359359 ([…]; herein incorporated as SEQ ID NO.: 909), and probe=ISIS 359360 (CGTGCCTACTGAGC; herein incorporated as SEQ ID NO.: 910)].

let-7i pri-miRNA = let-7i pri-miRNA expression in HeLa cells; type: cell-based, human; conditions: 100 nM
Description: Using the transfection methods previously described, HeLa cells were treated with 100 nM of the oligomeric compound ISIS Number 327890 (SEQ ID NO: 308) targeting the let-7i mature miRNA. Total RNA was isolated and expression levels of the let-7i pri-miRNA were analyzed by real-time quantitative RT-PCR using a primer/probe set specific for the let-7i pri-miRNA molecule [forward primer-ISIS 341684 ([…]; herein incorporated as SEQ ID NO.: 777), reverse primer=ISIS 341685 ([…]; herein incorporated as SEQ ID NO.: 778), and probe=ISIS 341686 ([…]; herein incorporated as SEQ ID NO.: 779)].

TLR4 = TLR4 mRNA in primary murine macrophages; type: cell-based, mouse; conditions: LPS-stimulated and LPS- and IFN-gamma-stimulated macrophages
Description: Following the 24 hour treatment with LPS, the cells were lysed and RNA was isolated using the RNEASY 96™ kit, as described herein. mRNA expression was quantitated by real-time PCR, performed as described herein, using primer and probe sets to amplify and quantitate TLR4, IL-12 and IL-6 mRNA expression levels. Primers and probe for TLR4, designed using GenBank Accession number NM_021297.1, were: forward primer, 5′-[…]-3′ (SEQ ID NO: 2172), reverse primer, 5′-[…]-3′ (SEQ ID NO: 2173), probe 5′-FAM-[…]-TAMRA-3′ (SEQ ID NO: 2174). Primers and probe for IL-12, designed using GenBank Accession number M86671.1, were: forward primer, 5′-[…]-3′ (SEQ ID NO: 2175), reverse primer, 5′-[…]-3′ (SEQ ID NO: 2176), probe 5′-FAM-[…]-TAMRA-3′ (SEQ ID NO: 2177). Primers and probe for IL-6, designed using GenBank Accession number X54542.1, were: forward primer, 5′-[…]-3′ (SEQ ID NO: 2178), reverse primer, 5′-[…]-3′ (SEQ ID NO: 2179), probe 5′-FAM-[…]-TAMRA-3′ (SEQ ID NO: 2180). The amount of total RNA in each sample was determined using a Ribogreen Assay (Molecular Probes, Eugene, Oreg.), and expression levels of TLR4, IL-12 and IL-6 were normalized to total RNA.
TLR4 is the primary macrophage receptor for LPS. […]

IL-12 mRNA = IL-12 mRNA in LPS-activated primary murine macrophages; type: cell-based, mouse; conditions: LPS-stimulated primary murine macrophages
IL-6 mRNA = IL-6 mRNA in LPS-activated primary murine macrophages; type: cell-based, mouse; conditions: IFN-gamma-stimulated and unstimulated cells, 75-600 nM
Description: To investigate the role of miRNAs in the immune response, oligomeric compounds of the present invention targeting miRNAs were tested for their effects upon lipopolysaccharide (LPS)-activated primary murine macrophages. Macrophages participate in the immune response, for example, in the recognition and phagocytosis of microorganisms, including bacteria. Interferon-gamma (IFN-gamma) released by helper T cells is one type of signal required for macrophage activation, and LPS can serve as an additional stimulus. LPS is a component of the gram-negative bacterial cell wall and acts as an agonist for toll-like receptor 4 (TLR4), the primary LPS receptor expressed by macrophages. The proinflammatory cytokines interleukin-12 (IL-12) and interleukin-6 (IL-6) are induced by LPS treatment of macrophages, thus the expression of the mRNAs encoding these cytokines was used to evaluate the response of macrophages to LPS following treatment with oligomeric compounds targeting miRNAs.
Macrophages were isolated as follows. Female C57B1/6 mice (Charles River Laboratories, Wilmington, Mass.) were injected intraperitoneally with 1 ml 3% thioglycollate broth (Sigma-Aldrich, St. Louis, Mo.), and peritoneal macrophage cells were isolated by peritoneal lavage 4 days later. The cells were plated in 96-well plates at 40,000 cells/well for one hour in serum-free RPMI adjusted to contain 10 mM HEPES (Invitrogen Life Technologies, Carlsbad, Calif.), allowed to adhere, then non-adherent cells were washed away and the media was replaced with RPMI containing 10 mM HEPES, 10% FBS and penicillin/streptomycin (“complete” RPMI; Invitrogen Life Technologies, Carlsbad, Calif.).
Oligomeric compounds were introduced into the cells using the non-liposomal transfection reagent FuGENE 6 Transfection Reagent (Roche Diagnostics Corp., Indianapolis, Ind.). Oligomeric compound was mixed with FuGENE 6 in 1 mL of serum-free RPMI to achieve a concentration of 10 μL FuGENE per 1000 nM oligomeric compound. The oligomeric compound/FuGENE complex was allowed to form at room temperature for 20 minutes. This mixture was diluted to the desired concentration of oligomeric compound by the addition of the appropriate volume of complete RPMI. The final ratio of FuGENE 6 to oligomeric compound was 1 μL of FuGENE 6 per 100 nM oligomeric compound. A volume of 100 μL of oligomeric compound/FuGENE/RPMI was added to each well of the 96-well plate in which the macrophages were cultured. Each oligomeric compound treatment was repeated in triplicate.
Following oligomeric compound treatment, cells were stimultated with LPS. Cells were cultured in the presence of the transfection complex for approximately 24 to 28 hours at 37° C. and 5% CO2, after which the medium containing the transfection complex was removed from the cells, and complete RPMI containing 100 ng/mL LPS (Sigma-Aldrich Corp., St. Louis, Mo.) was added to the cells for a period of approximately 24 hours. Control samples included (1) cells receiving no oligomeric compound, stimulated with LPS and (2) cells receiving neither oligomeric compound nor LPS treatment.
In another embodiment, following oligomeric compound treatment, cells were first activated by IFN-gamma, to amplify the response to LPS. Cells were cultured in the presence of the transfection complex for approximately 24 hours at 37° C. and 5% CO2, at which point the medium containing the transfection complex was removed from the cells, and complete RPMI containing 100 ng/mL recombinant mouse IFN-gamma (R&D Systems, Minneapolis, Minn.) was added to the cells. After the 4 hour treatment with INF-gamma, cells were treated with 100 ng/mL LPS for approximately 24 hours. Control samples included (1) cells receiving no oligomeric compound, stimulated with LPS and (2) cells receiving neither oligomeric compound nor LPS treatment. […]

let-7d pri-miRNA = let-7d pri-miRNA expression in T-24 cells; type: cell-based, human; conditions: 100 nM
Description: Using the transfection methods previously described, supra, T-24 cells were treated with 100 nM of the oligomeric compound ISIS Number 327926 (SEQ ID NO: 344) targeting the let-7d mature miRNA. Total RNA was isolated and expression levels of the let-7d pri-miRNA were analyzed by real-time quantitative RT-PCR using a primer/probe set specific for the let-7d pri-miRNA molecule (forward primer=ISIS 341678 (CCTAGGAAGAGGTAG TAGGTTGCA; herein incorporated as SEQ ID NO.: 771), reverse primer=ISIS 341679 ([…]; herein incorporated as SEQ ID NO.: 772), and probe=ISIS 341680 ([…]; herein incorporated as SEQ ID NO.: 773)).

## CTGTTCCTGCTGAACTGAGCCA (anti-miR; chemistry not fully specified) [ISIS 327945, uniform 2′-MOE PS; targets mir-24-2]
mir-24-2 pri-miRNA
  increase in expression levels of the mir-24-2 pri-miRNA molecule: approximately 35 fold

## AGCACAAACTACTACCTCA (chemistry not fully specified) [ISIS 327890, uniform 2′-MOE PS; targets let-7i]
let-7i pri-miRNA
  increase in expression levels of the let-7i pri-miRNA molecule: approximately 4 fold

## CCACATTGAGTTTCTTTAAG (e[5mC]*e[5mC]*eA*e[5mC]*eA*dT*dT*dG*dA*dG*dT*dT*dT*d[5mC]*dT*eT*eT*eA*eA*eG) [ISIS 229927, 5-10-5 2′-MOE gapmer PS targeting mouse TLR4 mRNA, positive control, reference compound]
TLR4
  expression of TLR4: reduced the expression of TLR4 in a dose-dependent manner
IL-12 mRNA
  IL-12 mRNA expression: dose-dependent reduction in IL-12
IL-6 mRNA
  IL-6 expression: some reduction in IL-6 expression

## ACTATGCAACCTACTACCTCT (chemistry not given here) [ISIS 327926, uniform 2′-MOE PS; targets let-7d]
let-7d pri-miRNA
  increase in expression levels of the let-7d pri-miRNA molecule: approximately 1.7 fold
